Laboratory results: the supplement of paper PMC10307832

Assays:
Test in all cases: relative viability (nuclei count vs DMSO), 5 days (fraction); higher = more cells survive
Dasatinib + Linsitinib = compound: Cc1nc(Nc2ncc(C(=O)Nc3c(C)cccc3Cl)s2)cc(N2CCN(CCO)CC2)n1 [Dasatinib] + C[C@]1(O)C[C@@H](c2nc(-c3ccc4ccc(-c5ccccc5)nc4c3)c3c(N)nccn32)C1 [Linsitinib] (partner 1 µM)
Summary of the method: (§1)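 Values are medians from duplicate plates. Each reflects relative viability, defined as the nuclei count of treated wells over that of vehicle wells. Lung cancer cell lines in 1536-well plates were pin-tool dosed one day after seeding with one drug alone or with a fixed anchor-drug dose plus five library-drug doses (not always all listed) in √10 steps, then fixed, stained and imaged at 4× after 5 days.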

ALW-II-49-7 + Olaparib = compound: Cc1ccc(C(=O)Nc2cccc(C(F)(F)F)c2)cc1Nc1cncc(C(N)=O)c1 [ALW-II-49-7] + O=C(c1cc(Cc2n[nH]c(=O)c3ccccc23)ccc1F)N1CCN(C(=O)C2CC2)CC1 [Olaparib] (partner 8 µM)
Summary of the method: as §1

XMD13-2 + Trametinib = compound: C1CC1C(=O)NC2=NNC3=C2C=CC(=C3)C4=CC(=CC=C4)C(=O)NC5CC5 [XMD13-2] + CC(=O)Nc1cccc(-n2c(=O)n(C3CC3)c(=O)c3c(Nc4ccc(I)cc4F)n(C)c(=O)c(C)c32)c1 [Trametinib] (partner 0.02 µM)
Summary of the method: as §1

ALW-II-49-7 + OSI-027 = compound: Cc1ccc(C(=O)Nc2cccc(C(F)(F)F)c2)cc1Nc1cncc(C(N)=O)c1 [ALW-II-49-7] + COc1cccc2cc(-c3nc([C@H]4CC[C@H](C(=O)O)CC4)n4ncnc(N)c34)[nH]c12 [OSI-027] (partner 0.5 µM)
Summary of the method: as §1

UMC-11
relative viability (Dasatinib + Linsitinib; first compound 0.005 µM): 0.911
relative viability (Dasatinib + Linsitinib; first compound 0.01581 µM): 0.827
relative viability (Dasatinib + Linsitinib; first compound 0.05 µM): 0.543
relative viability (Dasatinib + Linsitinib; first compound 0.1581 µM): 0.342
relative viability (Dasatinib + Linsitinib; first compound 0.5 µM): 0.319
relative viability (ALW-II-49-7 + Olaparib; first compound 0.08 µM): 0.428
relative viability (ALW-II-49-7 + Olaparib; first compound 0.253 µM): 0.428
relative viability (ALW-II-49-7 + Olaparib; first compound 0.8 µM): 0.413
relative viability (ALW-II-49-7 + Olaparib; first compound 2.53 µM): 0.345
relative viability (ALW-II-49-7 + Olaparib; first compound 8 µM): 0.342
relative viability (XMD13-2 + Trametinib; first compound 0.05 µM): 0.908
relative viability (XMD13-2 + Trametinib; first compound 0.1581 µM): 0.708
relative viability (XMD13-2 + Trametinib; first compound 0.5 µM): 0.726
relative viability (XMD13-2 + Trametinib; first compound 1.581 µM): 0.685
relative viability (XMD13-2 + Trametinib; first compound 5 µM): 0.513
relative viability (ALW-II-49-7 + OSI-027; first compound 0.08 µM): 0.499
relative viability (ALW-II-49-7 + OSI-027; first compound 0.253 µM): 0.457
relative viability (ALW-II-49-7 + OSI-027; first compound 0.8 µM): 0.487
relative viability (ALW-II-49-7 + OSI-027; first compound 2.53 µM): 0.434
relative viability (ALW-II-49-7 + OSI-027; first compound 8 µM): 0.485
